Legend:
ACHN cells [1] = test: ACHN xenograft in immunodeficient mice, tumor volume; assay type: in vivo; details: 5 mg/kg sorafenib oral, 10 mg/kg GW5074 s.c., alone or combined; once a day for three weeks; n=8
Experimental: Six-week old immnunodeficient male mice (BALB/cAnN.Cg-Foxn1^nu/CrlNarl) with an average weight of 20 grams were xenografted with 1x10^7 ACHN cells to the right by […]. The mice were maintained in a specific pathogen-free (SPF) environment. The size of tumor was measured using a digital caliper twice a week and tumor volume was calculated by the equation of length^∗width^∗height^∗0.5. […] A total of four groups were included in the experiment: a control group which received only vehicle (DMSO), […], 25 mg/kg GW5074, […], respectively, with 8 mice in each group.

ACHN cells [2] = test: SRB assay of cell survival / growth inhibition; assay type: cell-based, Human; details: 5 µM sorafenib or 10 µM GW5074 alone, or both combined (GW5074 30 minutes before sorafenib); 24 hours
Experimental: Human renal carcinoma (ACHN) cells were cultured in Eagle MEM (Minimum Essential Medium) with 10% FBS (Fetal Bovine Serum) and 1% penicillin/streptomycin. Sulforhodamine B (SRB) is a negative […] with a sulfonic acid group and binds to basic amino acids of intracellular proteins in weak acidic conditions. The SRB […] was extracted from cells using weak alkaline solution and then subjected to absorbance measurement. The amount of intracellular proteins, which is an indicator for cell survival, can be calculated from the amount of SRB.

Luc-ACHN-LL cells = test: Orthotopic metastasis model of renal carcinoma, IVIS photon signal and survival; assay type: in vivo, mice; details: for death within, following injection of cancer cells: 10 mg/kg sorafenib alone or 25 mg/kg GW5074 alone
Experimental: To simulate clinical phenomenon, we established an orthotopic spontaneous animal model for studying metastasis of renal carcinoma. First, ACHN cells were transfected with the luciferase gene and the resultamt Luc-ACHN transfectants (stable transfectants which express the luciferase) with different expression levels were then selected for in vivo culture in mice by subcutaneous injection. Six-week old and shaved mice were subcutaneously injected with 1×10^7 Luc-ACHN cells In 0.1 ml PBS. Two months after the injection, the mice were sacrificed and their kidneys, livers, regional lymph nodes as well as other organs were collected for assessing tumor cells that were potentially metastatic, which was confirmed by hematoxylin-eosin (H&E) staining. Tumor cell lines that are highly metastatic were dissected in 1 ml PBS into small pieces aseptically and then cultured in MEM media containing 10% FBS (fetal bovine serum) and 1% penicillin/streptomycin following centrifugation. A few days later, monoclonal cell lines were first treated with the trypsin to dissociate the cells and then cultured in vitro. The cells obtained from liver tumor tissues were named ACHN-L. The metastatic potential of various monoclonal cell lines collected from different organs was further analyzed by xenografting these tumor cells to the left kidneys of mice. The xenografted mice were sacrificed and examined 8 weeks after the injection of tumor cells. The tumor growth observed in each organ was investigated through visual examination and histology procedures. The metastatic cells found in the liver were dissected into small pieces aseptically and cultured in vitro. The cells obtained from liver tumor tissues were named ACHN-L (subcutaneous injection) cells and the cells collected from the metastatic lesions after injection of ACHN-L cells to the left kidneys were called ACHN-LL cells. The same procedure using orthotopic xenograft of ACHN-LL cells and liver metastatic cells was repeated twice to select for highly metastatic tumors. The cancer cell line (Luc-ACHN-LL), which is highly metastatic and causes high mortality, was selected. Immunodeficient male mice was injected with 3×10^5 Luc-ACHN-LL cells in 50 µL PBS at the right renal capsule. The in vivo luciferase activity was examined every day for up to three weeks so as to assure that there were no leakage of cancer cells at the kidneys immediately after the injection and to monitor the metastasis of these cancer cells. Two to five minutes before utilizing the IVIS Xenogene system, 75 mg/kg D-Luciferin (Xenogen) in PBS was injected to the retro-orbital sinus of each mouse. […]

ACHN cells [3] = test: Annexin V-FITC / propidium iodide flow cytometry for apoptosis or necrosis; assay type: cell-based, Human; details: 5 µM sorafenib, 10 µM GW5074 or both; 24 hours; n=4
Experimental: (§1) The combination therapy of sorafenib and GW5074 induces cell necrosis through the dephosphorylation of the death-associated DAPK at serine 308 followed by dissociation from proto-oncogene c-Raf. Cells were cultured as described in example 1, washed with phosphate buffered saline (PBS), and stained with the annexin V-FITC and propidium iodide (PI) for 15 minutes. The presence of fluorescent Annexin V as well as propidium iodide (PI) was detected by flow cytometry so as to determine whether the cell death is caused by apoptosis or necrosis. The expression of c-Raf and DAPK as well as the phosphorylation level of DAPK were examined by Western blot and immunoprecipitation using antibodies. Anti-DAPK antibodies or non-immune rabbit IgG (IP: immunoglobulin) were included as negative controls, and cell survival was measured by SRB assay, as shown In example 1. In this experiment, ACHN cells were treated separately with DMSO (as a control group), 5 µM sorafenib, 10 µM GW5074, or the combination therapy of 5 µM sorafenib and 10 µM GW5074 for 24 hours.

pDAPK^S308 = test: Western blot of DAPK S308 phosphorylation in ACHN cells; assay type: cell-based, Human; details: various concentrations, only when provided 30 minutes prior to the combination drugs
Experimental: as §1

O=C1Nc2ccc(I)cc2C1=Cc1cc(Br)c(O)c(Br)c1 [GW5074, 3-(3,5-Dibromo-4-hydroxy-benzylidene)-5-iodo-1,3-dihydro-indol-2-one]
inhibition effect on xenografted tumor growth (tumor volume) (ACHN cells [1]): nearly no inhibition effect | growth inhibition of cells (ACHN cells [2]): no growth inhibition | death within, following injection of cancer cells (Luc-ACHN-LL cells): ≤ 5 weeks | average cell necrosis rate (ACHN cells [3]): 1.35%

C=C1[C@@H](O)[C@@H]2O[C@]3(CC[C@H](/C=C/[C@@H](C)[C@@H]4CC(C)=C[C@@]5(O[C@H](C[C@@](C)(O)C(=O)O)CC[C@H]5O)O4)O3)CC[C@H]2O[C@@H]1[C@@H](O)C[C@H](C)[C@H]1O[C@@]2(CCCCO2)CC[C@H]1C [Okadaic acid]
inhibition of dephosphorylation of pDAPK^S308 and growth of ACHN cells (pDAPK^S308): effective

CNC(=O)c1cc(Oc2ccc(NC(=O)Nc3ccc(Cl)c(C(F)(F)F)c3)cc2)ccn1 [sorafenib]
inhibition effect on xenografted tumor growth (tumor volume) (ACHN cells [1]): nearly no inhibition effect | growth inhibition of cells (ACHN cells [2]): no growth inhibition | death within, following injection of cancer cells (Luc-ACHN-LL cells): ≤ 8 weeks | body weight (Luc-ACHN-LL cells; high-dose 60 mg/kg sorafenib): loss of weight | death within (Luc-ACHN-LL cells; high-dose 60 mg/kg sorafenib): ≤ 10 weeks | average cell necrosis rate (ACHN cells [3]): 0.77%

— patent EP3222276B1, “PHARMACEUTICAL COMPOSITION FOR TREATING CANCER AND BIOMARKER FOR DRUG SCREENING” (National Defense Medical Center, priority 2014, dated 2016)
